The record followed here is patent US10196365B2, “Quinazoline derivative, preparation method therefor, and pharmaceutical composition and application thereof” (ARROMAX PHARMATECH CO., LTD., priority 2014, dated 2019).

Holding throughout (assay type): cell-based
In test [1] the test system is A431 (human epithelial carcinoma cell lines). Nature of the test: Growth inhibition test in tumor cells (CCK8), A431. The conditions noted are these: A-431, 72 h.
Description: (§1) i) Logarithmic growth phase cells were collected and counted, the cells were suspended again with complete medium, the cell concentration was adjusted to an appropriate concentration (determined according to the results of cell density optimization test), inoculated to 96 plates, each of which with 100 mL cells suspension.
Test [2] has as its system NCI H1975 (human non-small cell lung cancer cell lines). Nature of the test: Growth inhibition test in tumor cells (CCK8), NCI-H1975. The conditions noted are these: 72 h.
Description: as §1
In test [3] the test system is HCC 827 (human non-small cell lung cancer cell line). In words: Growth inhibition test in tumor cells (CCK8), HCC827. The conditions noted are these: HCC 827 cells, 72 h.
Description: as §1
The subject of test [4] is MDA-MB-453 (human breast cancer cell lines). Nature of the test: Growth inhibition test in tumor cells (CCK8), MDA-MB-453. To be noted: MDA-MB-453 cells, 72 h. The protocol: Growth Inhibition Tests of a Series of Compounds in Different Tumor Cells
i. Cell lines: A431 (human epithelial carcinoma cell lines), A549 (human lung cancer cell lines), NCI H1975 (human non-small cell lung cancer cell lines (HCC), HCC 827 (human non-small cell lung cancer cell line), MDA-MB-453 (human breast cancer cell lines)
MDA-MB-453 cell line: 90% L15+10% FBS; trypsin (a 0.25% (W/V) solution was prepared with […], 0.53 mM EDTA was added);
i) Logarithmic growth phase cells were collected and counted, the cells were suspended again with complete medium,
ii) The cell concentration was adjusted to an appropriate concentration, inoculated to 96 holes, each of which with 100 μL cells suspension.
iii) The cells were incubated in a 37° C., 100% relative humidity and 5% CO2 incubator, for 24 h.
i) Logarithmic growth phase cells were collected and counted, the cells were suspended again with complete medium, the cell concentration was adjusted to an appropriate concentration (determined according to the results of cell density optimization test), inoculated to 96 plates, each of which with […] cells suspension. The cells were incubated in a 37° C., 100% relative humidity and 5% CO2 incubator for 24 h.
ii) The test compounds were diluted to the corresponding concentration stated by culture medium, and the cells were inoculated as 25 μL/hole. The final concentration of the compound was from 10 μM to 0 μM, with a gradient of 4 times, and 10 concentration points totally.
iii) The cells were incubated in a 37° C., 100% relative humidity, 5% CO2 incubator for 72 h.
iv) Absorbing the culture medium, the complete medium containing 10% CCK-8 was added and incubated in the incubator of 37° C. for 2-4 h.
v) After a slight shake, the absorbance at 450 nm was measured by SpectraMax M5 Microplate Reader, taking the absorbance at 650 nm as a reference, the inhibition rate was calculated.
The IC50 curve fitting was performed by using the software Graphpad Prism 5 and the calculation formula log (inhibitor) vs. response to calculate the IC50 value.

Usually IC50 stands for the point on the concentration scale where inhibition reaches its midpoint. High values mean weaker potency in that assay, low ones greater potency in that assay. For the compound `C=CS(=O)(=O)Nc1cc2c(Nc3ccc(F)c(Cl)c3)ncnc2cc1OCCOCC` [Embodiment 24, N-(4-(3-chloro-4-fluorophenylamino)-7-(2-ethoxyethoxy)quinazolin-6-yl)ethenesulfonamide], the IC50 in test [1] came out at 0.00338 µM; in test [2], 0.0137 µM; in test [3], 0.00395 µM; in test [4] it was 0.131 µM.

For `CCOCCOc1cc2ncnc(Nc3ccc(F)c(Cl)c3)c2cc1NC(=O)/C=C/C(=O)OC` [Embodiment 37, methyl (E)-4-(4-((3-chloro-4-fluorophenylamino)-7-(2-ethoxyethoxy)quinazolin-6-yl)amino)-4-oxobut-2-enoate], the half-maximal inhibitory concentration (IC50) amounted to 0.207 µM in test [1], 0.0352 µM in test [2], 0.000987 µM in test [3] and 0.0216 µM in test [4].

For `C=C(Cl)C(=O)Nc1cc2c(Nc3ccc(F)c(Cl)c3)ncnc2cc1OCCOCC` [Embodiment 27, N-(4-(3-chloro-4-fluorophenylamino)-7-(2-ethoxyethoxy)quinazolin-6-yl)2-chloroacrylamide], the half-maximal inhibitory concentration (IC50) in test [1] was 0.369 µM; in test [2] it was 0.0371 µM; in test [3] it was 0.0332 µM; in test [4], 0.00372 µM.

Take `C=C(F)C(=O)Nc1cc2c(Nc3ccc(F)c(Cl)c3)ncnc2cc1OCCOCC` [Embodiment 26, N-(4-(3-chloro-4-fluorophenylamino)-7-(2-ethoxyethoxy)quinazolin-6-yl)-2-fluoroacrylamide]: the half-maximal inhibitory concentration (IC50) was 0.0545 µM in test [1], 0.0725 µM in test [2], 0.000538 µM in test [3] and 0.0582 µM in test [4].

Regarding `CCOCCOc1ccc(Nc2ncnc3cc(OCCOCC)c(NC(=O)/C=C/CN(C)C)cc23)cc1Cl` [Embodiment 17, (E)-N-(4-(3-chloro-4-(2-ethoxyethoxy)phenylamino)-7-(2-ethoxyethoxy)quinazolin-6-yl)-4-(dimethylamino)but-2-enamide], the IC50 stood at 0.0137 µM in test [1], 0.00617 µM in test [2], 0.000343 µM in test [3] and 0.00253 µM in test [4].

As to `C=C(Br)C(=O)Nc1cc2c(Nc3ccc(F)c(Cl)c3)ncnc2cc1OCCOCC` [Embodiment 28, N-(4-(3-chloro-4-fluorophenylamino)-7-(2-ethoxyethoxy)quinazolin-6-yl)2-bromoacrylamide], the half-maximal inhibitory concentration (IC50) in test [1] is 0.572 µM; in test [2], 0.0394 µM; in test [3], 0.0064 µM; in test [4] it was 0.0151 µM.

`CCOCCOc1cc2ncnc(Nc3ccc(F)c(Cl)c3)c2cc1NC(=O)/C=C\C#N` [Embodiment 38, (Z)—N-(4-(3-chloro-4-fluorophenylamino)-7-(2-ethoxyethoxy)quinazolin-6-yl)-3-cyanoacrylamide]: the IC50 is 0.0948 µM in test [1], 0.0184 µM in test [2], 0.00556 µM in test [3] and 0.000681 µM in test [4].

Turning to `CCOCCOc1cc2ncnc(Nc3ccc(F)c(Cl)c3)c2cc1NC(=O)/C=C/Br` [Embodiment 30, (E)-N-(4-(3-chloro-4-fluorophenylamino)-7-(2-ethoxyethoxy)quinazolin-6-yl)-3-bromoacrylamide], the IC50 in test [1] was determined as 0.297 µM; in test [2], 0.00822 µM; in test [3] it was 0.00487 µM; in test [4], 0.004 µM.

Regarding `CCOCCOc1cc2ncnc(Nc3ccc(OCCOC)c(Cl)c3)c2cc1NC(=O)/C=C/CN(C)C` [Embodiment 15, (E)-N-(4-(3-chloro-4-(2-methoxyethoxy)phenylamino)-7-(2-ethoxyethoxy)quinazolin-6-yl)-4-(dimethylamino)but-2-enamide], the IC50 came out at 0.0201 µM in test [1], 0.0073 µM in test [2], 0.00343 µM in test [3] and 0.00166 µM in test [4].

The compound `CCOCCOc1cc2ncnc(Nc3ccc(F)c(Cl)c3)c2cc1NC(=O)/C=C/Cl` [Embodiment 31, (E)-N-(4-(3-chloro-4-fluorophenylamino)-7-(2-ethoxyethoxy)quinazolin-6-yl)-3-chloroacrylamide] came in with a half-inhibitory concentration (IC50) in test [2] of 0.00743 µM.
